Twelve compounds from PubChem BioAssay (NCI) can be followed below.

Values joined by “and” are separate entries in the source; they are usually repeats but may differ in a detail not shown here. Equal values may be shown once.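 Assay format: 96-well plates, 48-hour exposure. GI50 = concentration required for 50% inhibition of growth. TGI denotes the concentration required for complete inhibition of growth.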

What all share (assay): NCI-60 cell line screen, 48 h
Assay [1] has as its system HCC-2998 colon.
For assay [2], the system named is HL-60(TB) leukemia.
In assay [3] the test system is SF-268 CNS.
In assay [4] the test system is ACHN renal.
The test system of assay [5] is NCI-H23 lung.
Assay [6] has as its system SF-539 CNS.
The subject of assay [7] is SW-620 colon.
Assay [8] relates to OVCAR-8 ovarian.
Assay [9] deals with HCT-15 colon.
Assay [10] deals with SK-MEL-2 melanoma.

For `CCCN1CCC(=O)N(CCC(F)(F)C(F)(F)C(F)(F)C(F)(F)C(F)(F)C(F)(F)F)C1=S`, the TGI in [1], in assay [2], in [3], in assay [4], in assay [5] and in assay [6] was > 100 µM each time. In addition, the TGI in [7] and in assay [8] was > 100 µM in each case.
In the case of `CN1C(=O)c2cccc3cc([N+](=O)[O-])cc(c23)C1=O`, the TGI in [9], in assay [1], in assay [2], in assay [3], in assay [4] and in assay [5] was > 10 µM throughout. The TGI in assay [6], in [7] and in assay [8] was > 10 µM in each case.
Turning to `COc1cccc2c1C(=O)c1c(O)c3c(c(O)c1C2=O)C[C@@](O)(C(C)=O)C[C@@H]3OC1OC(C)C(O)C(N)C1Br` (stereo partly specified), the TGI in assay [9] was 0.78 µM; in [10], 0.715 µM and 0.704 µM; in assay [1], 0.327 µM and 0.489 µM; in assay [3], 3.63 µM and 1.21 µM; in assay [4], 0.174 µM and 0.139 µM; in [5], 0.206 µM and 0.177 µM. For the same compound, the TGI is 0.701 µM and 0.388 µM in [6]; 0.766 µM and 1.46 µM in [7]; 0.207 µM and 0.646 µM in assay [8]. Moreover, the GI50 in assay [10] is 198 nM; in [1], 168 nM; in assay [3] it was 36.5 nM; in assay [5] it was 17.4 nM; in assay [6], 41.9 nM; in [7] it was 26.6 nM. Further, the GI50 in assay [8] was 33.1 nM.
As for `Cc1cc(C(=O)Nc2ncc(Cc3cccc(C(F)(F)F)c3)s2)c2ccccc2n1`, the GI50 in [9] was 84 nM; in [10], 2740 nM; in assay [1], 1110 nM; in assay [2], 2210 nM; in [3], 2630 nM; in [4], 339 nM. Moreover, the GI50 was 3900 nM in assay [5], 1210 nM in assay [7] and 3490 nM in assay [8]. Besides, the TGI in assay [9] is > 100 µM; in [10] it was > 100 µM; in assay [1], > 100 µM; in assay [2], 5.38 µM; in assay [3], > 100 µM; in assay [4], > 100 µM. The TGI in assay [5], in [7] and in assay [8] was > 100 µM in each case.
For `O=C1CCN2C(=O)CCN12`, the TGI in assay [10], in [2], in [3], in [4], in assay [5] and in [7] was > 100 µM in each case. The TGI in [8] is > 100 µM.
Take `CC(=O)/C(C)=N/NC(=O)c1ccccc1O`: the GI50 in [9] is > 10000 nM; in [10], > 100000 nM; in [1], > 100000 nM; in assay [3], > 100000 nM; in [4], > 100000 nM; in assay [5], > 100000 nM. Besides, the GI50 in [7] and in assay [8] was > 100000 nM each time. Also, the TGI in assay [9], in assay [10], in [1], in assay [3], in assay [4] and in [5] was > 100 µM throughout. In addition, the TGI in [6] is > 10 µM; in assay [7], > 100 µM; in assay [8], > 100 µM.
For the compound `c1ccc(CNn2nnc3ccccc32)cc1`, the TGI in [9], in [10], in [1], in assay [2], in assay [3] and in assay [4] was > 100 µM in each case. Also, the TGI in assay [5], in assay [7] and in assay [8] was > 100 µM each time.
Regarding `COc1cc(/C=C/c2cc(/C=C/c3ccc(O)c(OC)c3)n(C(=O)Nc3ccc(F)c(Cl)c3)n2)ccc1O`, the GI50 in [9] is 250 nM; in assay [1], 639 nM; in assay [2] it was 310 nM; in assay [4], 141 nM; in assay [5], 147 nM; in assay [8] it was 496 nM. The TGI turned out to be 3.34 µM in assay [9]; 3.71 µM in [1]; 0.88 µM in assay [2]; 7.49 µM in [4]; 1.46 µM in assay [5]; 3.09 µM in [8].
In the case of `O=C(Cc1ccccc1)NN1C(=O)C(Cl)C1c1cc(Br)ccc1O` (stereo unspecified), the TGI was > 100 µM in [9]; > 100 µM in [10]; > 100 µM in assay [1]; 13.6 µM in assay [2]; 50 µM in [3]; > 100 µM in assay [4]. Besides, the TGI is 53.3 µM in [5], > 100 µM in assay [7] and 69.2 µM in assay [8].
On to `C[C@@H]1CC(=O)C2CCCC1C2=O` (stereo partly specified), for which the TGI in [9], in [1], in assay [2], in assay [3], in assay [4] and in [6] was > 100 µM in each case. In addition, the TGI in assay [7] and in assay [8] was > 100 µM in each case.
On to `Oc1cccnc1CN1CCCCC1`, for which the TGI in assay [9], in assay [10], in assay [1], in assay [3], in [4] and in [5] was > 100 µM throughout. The TGI in assay [6], in assay [7] and in assay [8] was > 100 µM throughout.
`Cc1cc(Cl)ccc1N=C1NC(=O)C(CC(=O)Nc2ccc([N+](=O)[O-])cc2[N+](=O)[O-])S1` (stereo unspecified): the TGI in assay [9] was > 100 µM; in assay [10] it was 46.1 µM; in assay [1], > 100 µM; in assay [3], > 100 µM; in [4], 71.4 µM; in [5], 51.8 µM. Besides, the TGI in [6] is 59.1 µM; in assay [7], > 100 µM; in assay [8], > 100 µM.
